Series [1] relates to Methylmalonic Acidemia (MMA) primary fibroblasts GM01673. Briefly: Mitochondrial respiration, XFe96 Extracellular Flux Analyzer (OCR/ECAR), MMA fibroblasts GM01673. In kind it is cell-based. The following applies: Homo sapiens, Fibroblast, read-out: Increase in Maximal Respiratory Capacity AUC. As for the experimental part:
The effect of the compounds of the present disclosure on mitochondrial respiration was measured with a XFe96 Extracellular Flux Analyzer (Seahorse Bioscience, Agilent Technologies) and Oxygen consumption Rate (OCR) and Extracellular acidification rate (ECAR) determined.
Cell culture and treatments. Primary adherent fibroblasts were cultured in minimum essential medium (MEM) (Gibco, 25030081) supplemented with 2 mM L-Glutamine (Gibco, 25030081), 15% fetal bovine serum (FBS) (Gibco, 26400044) and 1% penicillin/streptomycin (Gibco, 5140122) at 37° C. and 5% CO2. Cells were collected for either passaging or experiment at ˜70-80% confluence. Cells were obtained by trypsinization and seeded at 20000 cells/well in cell culture microplates (Seahorse Bioscience, 101085-004) and allowed to adhere for 16 hours in culture media.
By profiling different primary cells and/or optimizing their culture media or environmental components one can select cell lines and/or conditions that are appropriate for the biological or disease model. In the present example, 24 hours prior to OCR and ECAR profiling, media was changed to Dulbecco's Modified Eagle Medium (DMEM, Agilent Seahorse 103575-100) with the appropriate supplements for the different primary cells (10 mM glucose, 2 mM L-glutamine, 1 mM pyruvate, 10% FBS; 1 mM glucose, 2 mM L-glutamine, 1 mM pyruvate, 10% FBS; 10 mM glucose, 10% FBS; 5 mM glucose 10% FBS; 1 mM glucose 10% FBS). Cells used in this example were: Propionic Acidemia (PA) (GM00371, GM03590 Coriell Institute for Medical Research, Tsi 6337, Tsi 4626, Tsi 3618 Trans-Hit Bio), Methylmalonic Acidemia (MMA) (GM01673, Coriell Institute for Medical Research, Tsi 5224 Trans-Hit Bio), Branched chain ketoacid dehydrogenase kinase (BCKDK) (GM00612, GM00649 Coriell Institute for Medical Research), Subnormal activation of pyruvate dehydrogenase complex (PDH) (GM01503 Coriell Institute for Medical Research), Very long-chain acyl-CoA dehydrogenase (VLCAD) (GM17475), Leigh Syndrome (LS) (GM03672, GM13411 Coriell Institute for Medical Research), Pyruvate Carboxylase Deficiency (PC) (GM00444 Coriell Institute for Medical Research), Glutaric Acidemia-I (GA) (GM10653), Friedreich's Ataxia (FXN) (GM04078 Coriell Institute for Medical Research, Huntington's disease (HD) (GM21756 Coriell Institute for Medical Research), Ornithine Transcarbamylase Deficiency (OTC) (GM12756 Coriell Institute for Medical Research), Kearns-Sayre Syndrome (KSS) (GM06225 Coriell Institute for Medical Research).
One hour before the assay, the cells were washed with freshly prepared unbuffered serum free-Seahorse XF Assay medium (Seahorse Bioscience, North America, USA, 103575-100) with the same supplements as for the previous 24 hour incubation.
After baseline measurements of OCR, cells were challenged with compounds of the present disclosure at different concentrations (10 to 50 μM) or vehicle (DMSO, 0.1%) and a post-compound baseline was recorded. OCR was measured after sequentially adding to each well 1 μg/ml oligomycin (inhibitor of ATP synthase Sigma-Aldrich, 753531), then maximal OCR was determined with carbonyl cyanide 4-(trifluoromethoxy) phenylhydrazone (FCCP, Sigma-Aldrich, C2920), (uncoupler of oxidative phosphorylation) and 0.5 μM of rotenone (Sigma-Aldrich, R8875) plus antimycin A (Sigma-Aldrich, A8674) (inhibitors of mitochondrial complex I and III) for determination of rotenone-antimycin insensitive respiration together with Hoechst for nuclear staining in situ when normalized to cell counts. After the analysis and nuclear staining, the XFp microplate was transferred to the Cytation 5, and the nuclear images were captured, the individual nuclei were identified and counted by BioTek Gen5 software. Data were expressed as pmol of O2 per minute and normalized by nuclear staining and baselined to pre-compound addition.
Assay conditions were as stated below.
Assay specifics on assay conditions are indicated below when readouts were normalized to cell counts. […]

Series [2] concerns Propionic Acidemia (PA) primary fibroblasts GM00371. Nature of the series: Mitochondrial respiration, XFe96 Extracellular Flux Analyzer (OCR/ECAR), PA fibroblasts GM00371. The following applies: Homo sapiens, Fibroblast, 50 μM, read-out: Increase in Maximal Respiratory Capacity AUC. In kind it is cell-based.
The subject of series [3] is Dermal fibroblasts (HDF3CGF system). Briefly: BioMAP HDF3CGF system (IL-1β, TNFα, IFNγ, EGF, bFGF, PDGF-BB). The following applies: 10 uM. In kind it is cell-based, human.
Series [4] concerns primary culture of rat embryo mesencephalic cells (microglia, astrocytes and neurons) exposed to LPS. Nature of the series: Neuroprotective effect on damage induced by LPS on culture of mesencephalic neurons (NO, TNF-α, IL-1β, TH positive neurons). In kind it is cell-based. The following applies: 50 uM, after 5 days of LPS exposure; for inhibition at 50 µM: Rattus norvegicus, Neuron, 120 h, read-out: % reversion of TH positive neurons. As for the experimental part: Drug preparation. […] The stock solutions will be prepared 1000× the concentration in 100% DMSO. The final concentration of the vehicle (DMSO) is set at 0.1%.
Test animals. Pregnant Wistar rats (Janvier; France) are used for the study. They are group-housed and maintained in a room with controlled temperature (21-22° C.) and a reversed light-dark cycle (12h/12h; lights on: 17:30-05:30; lights off: 05:30-17:30) with food and water available ad libitum.
The protocol is performed in 3 independent cultures. For each culture, each condition is performed in sextuplicate.
Female rat of 15 days gestation is killed by cervical dislocation. Fetuses are removed from the uterus and their brains are harvested and placed in ice-cold medium (Leibovitz's L15 medium, Gibco). Only ventral mesencephalic flexure is used for the cell preparations. The midbrain is dissociated by trypsinization. The reaction is stopped, and the suspension is triturated and centrifuged. The pellet of dissociated cells is resuspended in culture medium consisted of DMEM-F12 (Gibco), containing 10% FBS (ATCC), 10% Horse serum (Gibco) and 2 mM L-glutamine (Gibco). Viable cells are counted and seeded on 96-well plates, precoated with poly-L-lysine. Cells are maintained in a humidified incubator at 37° C. in 5% CO2-95% air atmosphere. Half of the medium is changed on day 2 and day 5.
Treatment. On day 7, culture media are removed and replaced by new medium consisting of DMEM-F12 (Gibco) supplemented with 2% FBS (ATCC), 2% Horse serum (Gibco) and 2 mM L-glutamine (Gibco) and containing vehicle or test substances. After 1-hour exposure, LPS at 10 ng/ml is added and exposure further continued for 24 hours or 5 days period.
Inflammatory response measurement and neuronal death evaluation. NO production is measured in the media 24h and 5 days after LPS exposure using the Griess reagent kit (Molecular Probes). The Griess reagent Assay is a colorimetric reaction assay which measures the conversion of a sulfanilic salt into an azo dye product by nitrite. Visible wavelength absorbance data is collected using a 96-well plate reader at 570 nm (Multiskan EX, Thermo Fisher, France). IL-1β and TNF-α release are measured in the media 24h after LPS exposure using the ELISA development kit (PeproTech). The ELISA plate, previously coated with anti-IL-1β or anti-TNF-αantibody at 1 μg/ml, is incubated 1h with PBS containing 1% of BSA (bovine serum albumin). After washing four times with PBS containing 0.05% of Tween-20, the plate is successively incubated 2h with supernatant, 2h with biotinylated antibody at 0.5 μg/ml in PBS containing 0.1% of BSA and 0.05% of Tween-20, 45 min with Avidin-HRP conjugated at 1/2000 and 30 min with color ABTS substrate (Sigma). Visible wavelength absorbance data is collected using a 96-well plate reader at 405 nm with wavelength correction set at 650 nm (Multiskan EX, Thermo Fisher, France).
Immunodetection of tyrosine hydroxylase positive neurons. On day 12 (5 days after LPS exposure), cultures are fixed 30 min at 4° C. with paraformaldehyde in PBS (4%, Sigma). Then, cells are successively permeabilized with 0.1% Triton X100 for 30 min, saturated with PBS containing 3% of BSA (bovine serum albumin) and are incubated 2h with anti-tyrosine hydroxylase antibody (Sigma, 1:10000; clone TH-2) at 1/10 000 in PBS containing 0.5% of BSA. Cells are washed three times with PBS containing 0.5% of BSA, and they are incubated 1h with goat anti mouse antibody coupled with AF488 (Invitrogen A11001) diluted at 1/1000 in PBS containing 0.5% of BSA. Finally, nuclei are stained with DAPI at 1/1000 in PBS containing 0.5% of BSA. After rinsing with PBS, the plate is visualized and examined with Cell Insight HCS (Thermo Scientific) to determine the number of tyrosine hydroxylase positive cells per well.
Statistical Analysis. The drug-induced effect on NO and cytokines is calculated by setting the response of the LPS-stimulated control as 100%. […]

Series [5] deals with Venular Endothelial cells (HUVEC) (4H system). Nature of the series: BioMAP 4H system (IL-4 and histamine). The following applies: Homo sapiens, HUVEC, 24 h; 1 uM; procedure of Example 826; read-out: % decrease in E-Selectin. In kind it is cell-based, human.
Series [6] relates to Bronchial epithelial cells (BE3C system). Nature of the series: BioMAP BE3C system (IL-1β, TNFα, IFNγ). In kind it is cell-based, human. The following applies: Homo sapiens, Epithelial cell, 24 h; 10 uM; procedure of Example 831; read-out: % decrease in MMP-1.
For series [7], the system named is Peripheral blood mononuclear cells co-cultured with venular endothelial cells (HUVEC) (LPS system). Briefly: BioMAP LPS system. The following applies: Homo sapiens, HUVEC, 24 h, procedure of Example 827. Format: cell-based, human.
The subject of series [8] is Bronchial epithelial cells co-cultured with dermal fibroblast (BF4T system). Briefly: BioMAP BF4T system (TNFα and IL-4). In kind it is cell-based, human. The following applies: Homo sapiens, 24 h; 10 uM; procedure of Example 830; read-out: % increase in VCAM-1.
The test system of series [9] is Peripheral blood mononuclear cells co-cultured with B-cells (BT system).
Series [10] has the same test system. Nature of the series: cells. The following applies: Homo sapiens, 72 h, read-out: % increase in sIL-6.
Another series relates to HepG2 cells. Briefly: Glucose uptake (Glucose Uptake-Glo). Format: cell-based. The following applies: Homo sapiens, 50 uM, read-out: % increase in Glucose Uptake.
[11] abbreviates: assay condition A (10 mM glucose, 2 mM L-glutamine, 1 mM pyruvate, 10% FBS).

Structures are written as SMILES. Read-outs that look alike come from different tables or passages of the source.

`COC(=O)CC(SCCNC(=O)CCNC(=O)[C@H](O)C(C)(C)COC(=O)CN)C(=O)OC` (stereo partly drawn) [Compound 172]: the activation at 10 µM is at least 10% in series [1] (setting [11]) and at least 10% in [1] (assay condition D (1 mM glucose, 10% FBS)). In series [2] (setting [11]), the activation at 50 µM is at least 10%.
For the molecule `CC(=O)CC(=O)SCCNC(=O)CCNC(=O)[C@H](O)C(C)(C)COC(=O)O[C@H](CC(=O)[O-])C[N+](C)(C)C` [Compound 185, (3R,9R)-9-hydroxy-8,8-dimethyl-5,10,14,19,21-pentaoxo-3-((trimethylammonio)methyl)-4,6-dioxa-18-thia-11,15-diazadocosanoate], the “% increase in SRB” value in series [3] is recorded as at least 10%. Besides, the activation at 10 µM in series [3] (Homo sapiens, Fibroblast, 72 h, read-out: % increase in 72 Hour Proliferation) was at least 10%; in series [7] (10 uM, read-out: % increase in sTNFα) it was at least 10%; in series [8], at least 10%. For the same molecule, the activation at 50 µM is at least 10% in [2] (assay condition C (10 mM glucose, 10% FBS)) and at least 30% in the series on HepG2 cells. The “% decrease in NO release relative to LPS alone” value in series [4] was at least 20%. In addition, the figures for the inhibition at 50 µM in series [4] (list at threshold 15%) and in [4] (list at threshold 50%) were at least 15% and at least 50%, respectively. Besides, the inhibition at 1 µM is at least 10% in series [5] and at least 10% in [7] (1 uM, read-out: % decrease in sPGE2). In addition, the inhibition at 10 µM in series [6] was at least 10%; in series [7] (10 uM, read-out: % decrease in IL-1α), at least 10%. Also, the “% increase in B-cell Proliferation” value in [9] (1 uM, procedure of Example 829) is reported as at least 10%. For the same molecule, the “% increase in PBMC cytotoxicity” value in series [9] (human, 72 h, 1 µM) is listed as at least 10%. In [10], the activation at 1 µM is at least 10%.
As for `CC(=O)N[C@@H](CC(=O)CC(=O)SCCNC(=O)CCNC(=O)[C@H](O)C(C)(C)CO)C(=O)O` [Compound 447], the activation at 50 µM in series [1] (setting [11]) was at least 10%.
On the same count and under the same terms, as for `CC(C)(CO)[C@@H](O)C(=O)NCCC(=O)NCCSC(=O)CC(=O)N[C@@H](CCCCN)C(=O)O` [Compound 485], the figure is at least 10%.

The values are drawn from patent US20230107216A1, “PANTETHEINE DERIVATIVES AND USES THEREOF” (Comet Therapeutics, Inc., priority 2018, published 2023).
